The test system of one assay is LXRalpha. The conditions noted are these: GW3965 at concentrations as high as 1*10^-6 M; cited from earlier work.
In assay [1] the test system is THP-1 macrophages. Nature of the assay: hoxLDL efflux from macrophage cells. It is filed as cell-based, human. The conditions noted are these: GW3965 10^-8 M, NAPs 10^-6 M. The method, then: THP-1, human monocytes, are grown in suspension, with RPMI medium containing 0.4 mM Ca^2+ and Mg^2+, (ATCC) and supplemented with 10% FBS, in an incubator with 5% CO2 at 37 C and split every four days through centrifugation. The cells are seeded at a concentration of 100,000 cells/cm^2 to continue monocyte cultures and to differentiate the cells into macrophage cells. Once the monocytes have been differentiated into macrophage cells they will become adherent and can be tested. The macrophage cells can not be propagated and will be used within a week of differentiation.
Highly oxidized LDL will be oxidized within five days of each experiment. BODIPY-labeled and unlabeled human plasma derived LDL (Molecular Probes, OR) is oxidized by 18 hours of incubation with 10 uM CuSO4 (Sigma) at 37 C with 5% CO2. (Oorni 1997; Chang 2001) The oxidation will be stopped with 0.01% w/v EDTA after the 18 hours.
The efflux of hoxLDL by macrophage cells was assayed by incubating fluorescently labeled hoxLDL (10 ug/mL) with cells for 2 hours at 37 C and 5% CO2. […] The images were analyzed with Image Pro Plus 5.1 software (Media Cybernetics, San Diego, Calif.) and normalized with cell number and compared to the control sample wherein no NAPs or ligand was administered.

The subject of assay [2] is THP-1 macrophages. Nature of the assay: GW internalization study (multiphoton imaging). It is filed as cell-based, human. The settings on record: 5 hr, polymer 10^-6 M. The method, then: In brief, differentiated THP-1 macrophages were incubated with NAPs at 10^−6 M and/or 10^−7M GW3965 for 5 hr in serum-free RPMI at 37° C. Cells were washed and fixed and multiphoton imaging to detect internalized GW3965 was performed on a Leica TCS SP2 system (Leica Microsystems, Inc., Exton, Pa.). The cells were illuminated using a titanium: sapphire femtosecond laser with a tunable wavelength from 780 nm to 920 nm (Mai Tai, repetition rate 80 Mhz, 100 fs pulse duration, 800 mW) and 470-500 nm emission.

A further assay has as its system ABCA1. The settings on record: GW3965 at concentrations as high as 1*10^-6 M; cited from earlier work.
The subject of assay [3] is THP-1 macrophages. Briefly: Efflux of high density lipoproteins (HDL secretion). The settings on record: macrophages pre-loaded with hoxLDL 30 μg/ml, ApoA1 present. It is filed as cell-based, human. The method, then:
In brief, differentiated THP-1 macrophages were pre-incubated with 30 μg/ml highly oxidized LDL at 37° C. in serum-free RPMI 1640 for 24 hr. Next, NAPs at 10^−6 M and 10 ug/mL ApoA1 with or without 10^−7 M GW3965 were added to each well and incubated for a further 24 hours. The cell medium was then removed for analysis using the Biovision HDL and LDL/VLDL Cholesterol Quantification kit (BioVision, CA). The remaining macrophages were lysed using 0.03 g sodium dodecyl sulfate (SDS) in 30 ml sodium hydroxide (NaOH, 0.1N). The protein content was measured with the Modified Lowry protein assay (Pierce, Ill.) and the HDL secretion results were normalized per mg cell protein.

“Also recorded” adds a separate entry of the source.

For the compound `O=C(O)Cc1cccc(OCCCN(Cc2cccc(C(F)(F)F)c2Cl)CC(c2ccccc2)c2ccccc2)c1` [GW3965], in the assay with LXRalpha, the “LXRalpha increase in HepG2 cells” value is on record as at most 3 fold. The “hoxLDL efflux (in words)” value in the assay on THP-1 macrophages [1] (5 hours) was “not effective”. Besides, the “less hoxLDL within the cells / cholesterol released (efflux) versus nothing administered” value in the assay with THP-1 macrophages [1] (hoxLDL 10 ug/mL 2 h, then test condition 5 h) was found to be 4%. Moreover, the “internalization of GW3965 by macrophages (multiphoton images, in words)” value in the assay on THP-1 macrophages [2] is “minimal uptake; also recorded: no drug uptake”. Besides, the “ABCA1 increase in HepG2 cells” value in the assay on ABCA1 was at most 6 fold. In the assay with THP-1 macrophages [3], the “HDL secreted versus 100 percent baseline (in words)” value is “not significantly different”.

These data come from patent US20110008396A1, “COMPOSITIONS AND METHODS FOR TREATING CARDIOVASCULAR CONDITIONS” (Rutgers, the Sate University of New Jersey, priority 2007, published 2011).
